Experiment [1] has as its target T1, HDAC1 (Homo sapiens, UniProt Q13547).
T1 construct: purchased BPS Bioscience 50051
Kind of experiment: Fluorogenic HDAC deacetylase assay (BPS Bioscience). It counts as biochemical. The following applies: read-out: % inhibition @ 10 uM.

Experiment [2] deals with T2, HDAC2 (Homo sapiens, UniProt Q92769).
T2 construct: purchased BPS Bioscience 50002
In words: biochemical. To be noted: read-out: % inhibition @ 10 uM.

In experiment [3] the target is T3, HDAC3/NCOR2 (Homo sapiens, UniProt O15379).
T3 construct: purchased BPS Bioscience 50003
Kind of experiment: Fluorogenic HDAC deacetylase assay (BPS Bioscience). It counts as biochemical.

The target in experiment [4] is T4, HDAC4 (Homo sapiens, UniProt P56524).
T4 construct: purchased BPS Bioscience 50004
The description is as above. It counts as biochemical. The following applies: read-out: % inhibition @ 10 uM.

The target of experiment [5] is T5, HDAC7 (Homo sapiens, UniProt Q8WUI4).
T5 construct: purchased BPS Bioscience 50007
The experiment is described as above. It counts as biochemical.

Experiment [6] addresses T6, HDAC9 (Homo sapiens, UniProt Q9UKV0).
T6 construct: purchased BPS Bioscience 50009
The description is as above. It counts as biochemical.

The target of experiment [7] is T7, HDAC11 (Homo sapiens, UniProt Q96DB2).
T7 construct: purchased BPS Bioscience 50011
The description is as above. It counts as biochemical. The following applies: read-out: % inhibition @ 10 uM.

Experiment [8] relates to pulmonary arterial hypertension in a rat model. Set-up: method as in earlier work. The following applies: daily injections following monocrotaline; after 4 weeks of treatment; cited from earlier work.
Experiment [9] concerns implanted tumors (malignant glioma). Set-up: method as in PMID 26409450. To be noted: direct injection into implanted tumors; cited from earlier work.

The source of these data is article PMC5999115, “Anti-tumor activity of phenoxybenzamine and its inhibition of histone deacetylases” (PLoS ONE, 2018).

T5 sequence (Q8WUI4 518-952 limits assumed): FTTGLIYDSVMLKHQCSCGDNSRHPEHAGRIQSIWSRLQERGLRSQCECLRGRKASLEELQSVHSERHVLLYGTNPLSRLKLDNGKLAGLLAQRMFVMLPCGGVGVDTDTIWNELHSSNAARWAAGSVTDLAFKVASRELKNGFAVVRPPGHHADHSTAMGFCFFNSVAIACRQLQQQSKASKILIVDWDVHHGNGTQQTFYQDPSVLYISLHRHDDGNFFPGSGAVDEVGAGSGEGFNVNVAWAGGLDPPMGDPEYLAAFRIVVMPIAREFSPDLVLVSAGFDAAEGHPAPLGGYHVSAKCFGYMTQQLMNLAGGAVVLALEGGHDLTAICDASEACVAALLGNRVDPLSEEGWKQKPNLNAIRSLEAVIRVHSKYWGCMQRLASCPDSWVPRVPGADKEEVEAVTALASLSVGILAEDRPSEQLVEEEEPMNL
T3 sequence (O15379 whole entry): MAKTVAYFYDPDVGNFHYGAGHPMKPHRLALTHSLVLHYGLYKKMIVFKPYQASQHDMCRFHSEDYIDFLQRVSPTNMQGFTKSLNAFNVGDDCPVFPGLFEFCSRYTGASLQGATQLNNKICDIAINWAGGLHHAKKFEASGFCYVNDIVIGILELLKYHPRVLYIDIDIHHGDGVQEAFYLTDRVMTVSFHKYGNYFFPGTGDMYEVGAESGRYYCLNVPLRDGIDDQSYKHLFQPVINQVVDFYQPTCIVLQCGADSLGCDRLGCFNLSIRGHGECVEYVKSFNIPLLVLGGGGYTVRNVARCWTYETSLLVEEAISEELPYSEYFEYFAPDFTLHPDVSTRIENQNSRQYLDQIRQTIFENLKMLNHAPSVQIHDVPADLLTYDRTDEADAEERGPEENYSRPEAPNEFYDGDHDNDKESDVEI
T3 sequence (Q9Y618 395-489 partner limits assumed): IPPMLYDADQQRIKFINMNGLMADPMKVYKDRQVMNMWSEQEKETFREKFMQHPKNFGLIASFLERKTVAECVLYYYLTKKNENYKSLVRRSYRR
T4 sequence (P56524 627-1084 limits assumed): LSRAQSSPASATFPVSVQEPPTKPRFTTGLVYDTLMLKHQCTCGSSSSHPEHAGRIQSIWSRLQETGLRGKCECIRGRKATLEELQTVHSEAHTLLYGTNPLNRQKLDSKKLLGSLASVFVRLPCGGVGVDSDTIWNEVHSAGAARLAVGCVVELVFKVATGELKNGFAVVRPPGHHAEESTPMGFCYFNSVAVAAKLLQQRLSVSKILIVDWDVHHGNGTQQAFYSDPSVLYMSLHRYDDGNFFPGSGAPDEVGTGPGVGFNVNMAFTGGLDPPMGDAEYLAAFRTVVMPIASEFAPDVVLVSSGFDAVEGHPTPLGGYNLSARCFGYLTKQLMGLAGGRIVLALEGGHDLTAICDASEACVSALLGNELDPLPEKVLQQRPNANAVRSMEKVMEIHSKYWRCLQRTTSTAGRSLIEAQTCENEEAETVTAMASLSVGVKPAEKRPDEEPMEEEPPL
T7 sequence (Q96DB2 whole entry): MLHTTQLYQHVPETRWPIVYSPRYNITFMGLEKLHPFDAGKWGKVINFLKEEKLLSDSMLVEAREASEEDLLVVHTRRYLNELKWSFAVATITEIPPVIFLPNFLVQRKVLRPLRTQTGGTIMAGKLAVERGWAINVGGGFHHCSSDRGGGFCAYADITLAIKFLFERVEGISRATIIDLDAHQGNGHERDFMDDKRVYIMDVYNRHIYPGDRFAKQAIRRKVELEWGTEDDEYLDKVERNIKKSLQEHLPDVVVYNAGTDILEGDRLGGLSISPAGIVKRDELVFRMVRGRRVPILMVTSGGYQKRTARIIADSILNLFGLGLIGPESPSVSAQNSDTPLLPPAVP
T1 sequence (Q13547 whole entry): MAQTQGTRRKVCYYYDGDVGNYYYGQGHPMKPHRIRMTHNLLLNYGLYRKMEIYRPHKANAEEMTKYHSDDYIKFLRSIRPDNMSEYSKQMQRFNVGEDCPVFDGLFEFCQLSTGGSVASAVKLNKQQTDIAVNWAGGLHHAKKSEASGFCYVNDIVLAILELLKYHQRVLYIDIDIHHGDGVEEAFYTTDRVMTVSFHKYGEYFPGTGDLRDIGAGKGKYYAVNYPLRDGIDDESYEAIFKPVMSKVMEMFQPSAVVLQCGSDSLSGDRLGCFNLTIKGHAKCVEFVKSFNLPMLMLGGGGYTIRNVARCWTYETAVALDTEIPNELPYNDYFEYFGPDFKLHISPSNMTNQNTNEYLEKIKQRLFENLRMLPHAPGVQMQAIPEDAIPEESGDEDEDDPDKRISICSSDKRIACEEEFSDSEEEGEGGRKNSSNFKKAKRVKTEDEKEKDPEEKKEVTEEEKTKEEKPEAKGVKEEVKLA
T2 sequence (Q92769 whole entry): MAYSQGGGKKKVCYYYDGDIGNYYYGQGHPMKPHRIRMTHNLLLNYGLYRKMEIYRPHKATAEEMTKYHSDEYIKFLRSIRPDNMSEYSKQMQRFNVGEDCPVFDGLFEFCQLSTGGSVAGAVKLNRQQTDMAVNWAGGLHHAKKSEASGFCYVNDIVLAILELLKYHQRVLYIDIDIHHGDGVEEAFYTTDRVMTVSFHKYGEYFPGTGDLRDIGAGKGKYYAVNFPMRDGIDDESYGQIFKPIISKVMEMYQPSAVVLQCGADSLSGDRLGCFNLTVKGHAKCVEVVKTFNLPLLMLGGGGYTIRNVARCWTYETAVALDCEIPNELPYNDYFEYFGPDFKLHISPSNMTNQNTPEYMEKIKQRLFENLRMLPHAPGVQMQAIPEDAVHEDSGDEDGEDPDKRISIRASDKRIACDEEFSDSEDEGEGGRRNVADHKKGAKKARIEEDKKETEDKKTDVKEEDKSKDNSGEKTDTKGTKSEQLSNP
T6 sequence (Q9UKV0 1-1066 isoform Q9UKV0-5): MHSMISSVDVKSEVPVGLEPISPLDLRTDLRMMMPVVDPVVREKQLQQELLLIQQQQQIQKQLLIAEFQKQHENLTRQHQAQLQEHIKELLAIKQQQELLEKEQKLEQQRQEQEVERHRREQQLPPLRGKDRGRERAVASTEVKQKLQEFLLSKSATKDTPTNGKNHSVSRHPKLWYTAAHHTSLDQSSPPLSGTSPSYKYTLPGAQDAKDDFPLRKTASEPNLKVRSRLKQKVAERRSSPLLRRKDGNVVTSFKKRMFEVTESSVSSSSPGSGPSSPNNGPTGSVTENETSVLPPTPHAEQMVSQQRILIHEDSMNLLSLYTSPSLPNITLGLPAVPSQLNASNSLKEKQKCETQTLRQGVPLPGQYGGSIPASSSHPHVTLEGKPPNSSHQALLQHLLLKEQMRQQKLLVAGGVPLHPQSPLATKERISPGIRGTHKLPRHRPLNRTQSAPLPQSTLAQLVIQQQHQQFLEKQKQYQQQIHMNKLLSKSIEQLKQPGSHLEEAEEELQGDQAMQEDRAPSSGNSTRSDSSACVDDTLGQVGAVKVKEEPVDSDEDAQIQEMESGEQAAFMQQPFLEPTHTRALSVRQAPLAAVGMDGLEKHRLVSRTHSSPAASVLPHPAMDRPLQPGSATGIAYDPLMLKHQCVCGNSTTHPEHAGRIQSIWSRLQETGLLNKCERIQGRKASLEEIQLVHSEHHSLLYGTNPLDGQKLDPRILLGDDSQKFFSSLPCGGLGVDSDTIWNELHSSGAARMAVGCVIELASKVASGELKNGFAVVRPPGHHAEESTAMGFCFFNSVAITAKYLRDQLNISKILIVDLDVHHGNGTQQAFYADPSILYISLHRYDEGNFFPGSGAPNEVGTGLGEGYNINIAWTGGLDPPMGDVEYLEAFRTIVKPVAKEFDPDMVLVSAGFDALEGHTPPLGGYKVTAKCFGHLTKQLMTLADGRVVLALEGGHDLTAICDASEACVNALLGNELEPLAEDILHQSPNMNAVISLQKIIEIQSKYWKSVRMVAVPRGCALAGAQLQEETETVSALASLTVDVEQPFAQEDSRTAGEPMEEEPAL

As for `CC(COc1ccccc1)N(CCCl)Cc1ccccc1` (stereo not drawn) [PBZ, phenoxybenzamine], the inhibition at 10 µM is 16% in [1]; 0% in experiment [2]; 31% in [3] (read-out: % inhibition @ 10 uM, HDAC3/NCOR2); 25% in [4]; 34% in experiment [5] (read-out: % inhibition @ 10 uM, HDAC7); 0% in experiment [7]. For the same compound, the “% inhibition @ 10 uM” value is ~30% in experiment [3] (HDAC3/NCOR2, 10 µM) and ~30% in experiment [5] (HDAC7, 10 µM). The compound further registered an IC50 in experiment [6] of 5.3 µM. Further, the “decrease in right-ventricular hypertrophy” value in experiment [8] is given as 69%. Besides, in experiment [8], the “inhibition in the increase in medial thickening of pulmonary arteries” value is on record as 80%. Moreover, the “expansion of tumor volume in vivo” value in [9] is on record as “marked reduction in expansion of tumor volume”.

The term IC50 denotes the concentration that inhibits the measured activity by half. Low readings indicate greater potency, high ones weaker potency.
